Assay results from patent US9957261B2 (Hoffmann-La Roche Inc., priority 2014, dated 2018).

How the values were obtained:
[1] = target: rat TAAR1 (Rattus norvegicus (Rat), UniProt Q923Y9); assay: Radioligand binding assay on rat TAAR1; conditions: rat TAAR1, membranes of stably transfected HEK-293 cells; second value of mouse/rat pair
Experimental: (§1) Construction of TAAR Expression Plasmids and Stably Transfected Cell Lines
(§2) For the construction of expression plasmids the coding sequences of human, rat and mouse TAAR 1 were amplified from genomic DNA essentially as described by Lindemann et al.. The Expand High Fidelity PCR System (Roche Diagnostics) was used with 1.5 mM Mg^2+ and purified PCR products were cloned into pCR2.1-TOPO cloning vector (Invitrogen) following the instructions of the manufacturer. PCR products were subcloned into the pIRESneo2 vector (BD Clontech, Palo Alto, Calif.), and expression vectors were sequence verified before introduction in cell lines.
(§3) HEK293 cells (ATCC # CRL-1573) were cultured essentially as described by Lindemann et al. (2005). For the generation of stably transfected cell lines HEK293 cells were transfected with the pIRESneo2 expression plasmids containing the TAAR coding sequences (described above) with Lipofectamine 2000 (Invitrogen) according to the instructions of the manufacturer, and 24 hrs post transfection the culture medium was supplemented with 1 mg/ml G418 (Sigma, Buchs, Switzerland). After a culture period of about 10 d clones were isolated, expanded and tested for responsiveness to trace amines (all compounds purchased from Sigma) with the cAMP Biotrak Enzyme immunoassay (EIA) System (Amersham) following the non-acetylation EIA procedure provided by the manufacturer.
Radioligand Binding Assay on Rat TAAR1
(§4) Membrane Preparation and Radioligand Binding.
(§5) HEK-293 cells stably expressing rat TAAR1 were maintained at 37° C. and 5% CO2 in DMEM high glucose medium, containing fetal calf serum (10%, heat inactivated for 30 min at 56° C.), penicillin/streptomycin (1%), and 375 μg/ml geneticin (Gibco). Cells were released from culture flasks using trypsin/EDTA, harvested, washed twice with ice-cold PBS (without Ca^2+ and Mg^2+), pelleted at 1′000 rpm for 5 min at 4° C., frozen and stored at −80° C. Frozen pellets were suspended in 20 ml HEPES-NaOH (20 mM, pH 7.4) containing 10 mM EDTA and homogenized with a Polytron (PT 6000, Kinematica) at 14,000 rpm for 20 s. The homogenate was centrifuged at 48,000×g for 30 min at 4° C. Subsequently, the supernatant was removed and discarded, and the pellet resuspended in 20 ml HEPES-NaOH (20 mM, pH 7.4) containing 0.1 mM EDTA using the Polytron (20 s at 14,000 rpm). This procedure was repeated and the final pellet resuspended in HEPES-NaOH containing 0.1 mM EDTA and homogenized using the Polytron. Typically, aliquots of 2 ml membrane portions were stored at −80° C. With each new membrane batch the dissociation constant (Kd) was determined via a saturation curve. […] Nonspecific binding was defined as the amount of [H]—(S)-4-[(ethyl-phenyl-amino)-methyl]-4,5-dihydro-oxazol-2-ylamine bound in the presence of 10 μM unlabeled ligand. All compounds were tested at a broad range of concentrations (10 pM to 10 μM) in duplicates. […] The 96 deep well plates were incubated for 1 hr at 4° C. Incubations were terminated by rapid filtration through Unifilter-96 plates (Packard Instrument Company) and glass filters GF/C (Perkin Elmer) presoaked for 1 hr in polyethylenimine (0.3%) and washed 3 times with 1 ml of cold binding buffer. After addition of 45 μl of Microscint 40 (PerkinElmer) the Unifilter-96 plate was sealed and after 1 hr the radioactivity counted using a TopCount Microplate Scintillation Counter (Packard Instrument Company).

[2] = target: mouse TAAR1 (Mus musculus (Mouse), UniProt Q923Y8); assay: Radioligand binding assay on mouse TAAR1; conditions: mouse TAAR1, membranes of stably transfected HEK-293 cells; first value of mouse/rat pair
Experimental: as §1, §2, §3
Radioligand Binding Assay on Mouse TAAR1
as §4
as §5, with “expressing mouse” for “expressing rat”, “of ^3[H]—(S)-4-[(ethyl-phenyl-amino)-methyl]-4,5-dihydro-oxazol-2-ylamine” for “of [H]—(S)-4-[(ethyl-phenyl-amino)-methyl]-4,5-dihydro-oxazol-2-ylamine”

Chain of mouse TAAR1 (Q923Y8 whole entry): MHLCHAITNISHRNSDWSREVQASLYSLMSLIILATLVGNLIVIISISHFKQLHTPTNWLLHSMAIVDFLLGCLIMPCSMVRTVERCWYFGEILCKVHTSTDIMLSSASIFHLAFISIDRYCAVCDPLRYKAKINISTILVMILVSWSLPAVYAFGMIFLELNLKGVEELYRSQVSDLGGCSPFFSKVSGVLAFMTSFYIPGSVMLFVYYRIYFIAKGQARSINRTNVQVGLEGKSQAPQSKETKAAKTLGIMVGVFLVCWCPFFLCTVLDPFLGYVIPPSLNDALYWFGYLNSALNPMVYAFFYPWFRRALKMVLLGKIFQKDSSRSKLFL
Chain of rat TAAR1 (Q923Y9 whole entry): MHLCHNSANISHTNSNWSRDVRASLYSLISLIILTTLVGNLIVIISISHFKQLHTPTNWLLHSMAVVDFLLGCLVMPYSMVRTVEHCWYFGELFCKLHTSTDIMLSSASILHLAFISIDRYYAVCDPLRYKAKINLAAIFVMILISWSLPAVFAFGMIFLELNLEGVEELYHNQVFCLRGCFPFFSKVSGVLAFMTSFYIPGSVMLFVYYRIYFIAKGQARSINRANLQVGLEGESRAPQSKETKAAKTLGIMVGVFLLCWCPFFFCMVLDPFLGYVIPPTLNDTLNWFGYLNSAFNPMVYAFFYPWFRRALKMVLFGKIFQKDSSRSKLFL

Compound	Ki [1] [µM]	Ki [2] [µM]
NC1CCc2cc(C(=O)Nc3cccc(Cl)c3)ccc2C1 (centres unmarked) [Example 59, 6-Amino-N-(3-chlorophenyl)-5,6,7,8-tetrahydronaphthalene-2-carboxamide]	0.0109	0.0018
Cc1cc(C(=O)Nc2ccc3c(c2)CC[C@H](N)C3)ccn1 [Example 17, (S)—N-(6-Amino-5,6,7,8-tetrahydronaphthalen-2-yl)-2-methylisonicotinamide]	0.147	0.111
Cc1onc(C(=O)Nc2ccc3c(c2)CC[C@H](N)C3)c1Cl [Example 26, (S)—N-(6-Amino-5,6,7,8-tetrahydronaphthalen-2-yl)-4-chloro-5-methylisoxazole-3-carboxamide]	0.0199	0.0049
NC1CCc2cc(C(=O)NCc3ccc(C(F)(F)F)cc3)ccc2C1 (centres unmarked) [Example 35, 6-Amino-N-(4-(trifluoromethyl)benzyl)-5,6,7,8-tetrahydronaphthalene-2-carboxamide]	0.035	0.0055
N[C@H]1COc2cc(Nc3ncc(Cl)cn3)ccc2C1 [Example 93, (R)—N7-(5-Chloropyrimidin-2-yl)chroman-3,7-diamine]	0.0374	0.042
N[C@H]1CCc2cc(NC(=O)c3cccnc3F)ccc2C1 [Example 39, (S)—N-(6-Amino-5,6,7,8-tetrahydronaphthalen-2-yl)-2-fluoronicotinamide]	0.14	0.476
CCc1ccc(Nc2ccc3c(c2)CC[C@H](N)C3)cc1 [Example 53, (S)—N6-(4-Ethylphenyl)-1,2,3,4-tetrahydronaphthalene-2,6-diamine]	0.0083	0.006
CCn1nc(C(=O)Nc2ccc3c(c2)OC[C@H](N)C3)c(Br)c1OCC(F)F [Example 92, (R)—N-(3-Aminochroman-7-yl)-4-bromo-5-(2,2-difluoroethoxy)-1-ethyl-1H-pyrazole-3-carboxamide]	0.0023	0.0151
N[C@H]1CCc2cc(NC(=O)c3cnn(-c4ccc(OC(F)(F)F)cc4)c3)ccc2C1 [Example 29, (S)—N-(6-Amino-5,6,7,8-tetrahydronaphthalen-2-yl)-1-(4-(trifluoromethoxy)phenyl)-1H-pyrazole-4-carboxamide]	0.0005	0.0012
N[C@H]1CCc2cc(NC(=O)c3[nH]nc(-c4ccc(Cl)o4)c3Cl)ccc2C1 [Example 25, (S)—N-(6-Amino-5,6,7,8-tetrahydronaphthalen-2-yl)-4-chloro-3-(5-chlorofuran-2-yl)-1H-pyrazole-5-carboxamide]	0.0003	0.0007
NC1CCc2cc(NC(=O)c3n[nH]c(C4CC4)c3Br)ccc2C1 (centres unmarked) [Example 2, N-(6-Amino-5,6,7,8-tetrahydronaphthalen-2-yl)-4-bromo-5-cyclopropyl-1H-pyrazole-3-carboxamide]	0.0042	0.0077
NC1CCc2cc(C(=O)Nc3ccc(F)cc3)ccc2C1 (centres unmarked) [Example 58, 6-Amino-N-(4-fluorophenyl)-5,6,7,8-tetrahydronaphthalene-2-carboxamide]	0.0964	0.0569
N[C@H]1CCc2cc(Nc3ncc(C(F)(F)F)cn3)ccc2C1 [Example 23, (S)—N6-(5-(Trifluoromethyl)pyrimidin-2-yl)-1,2,3,4-tetrahydronaphthalene-2,6-diamine]	0.0068	0.0213
Cc1cc(C(=O)Nc2ccc3c(c2)OCC(N)C3)nc(C(F)(F)F)n1 (centres unmarked) [Example 9, N-(3-Aminochroman-7-yl)-6-methyl-2-(trifluoromethyl)pyrimidine-4-carboxamide]	0.114	0.0805

Other lines, results leading:

Ki [1] [µM]	Ki [2] [µM]	Compound
0.0016	0.0033	N[C@H]1CCc2cc(NC(=O)c3ccc(OCC(F)(F)F)nc3)ccc2C1 [Example 22, (S)—N-(6-Amino-5,6,7,8-tetrahydronaphthalen-2-yl)-6-(2,2,2-trifluoroethoxy)nicotinamide]
0.095	0.0355	N[C@H]1CCc2cc(NC(=O)NCc3ccc(Cl)cn3)ccc2C1 [Example 62, (S)-1-(6-Amino-5,6,7,8-tetrahydronaphthalen-2-yl)-3-((5-chloropyridin-2-yl)methyl)urea]
0.0085	0.0029	N[C@H]1CCc2cc(NC(=O)NCc3ccc(Cl)cc3)ccc2C1 [Example 69, (S)-1-(6-Amino-5,6,7,8-tetrahydronaphthalen-2-yl)-3-(4-chlorobenzyl)urea]
0.0865	0.021	NC1CCc2cc(C(=O)Nc3cnc(C(F)(F)F)cn3)ccc2C1 (centres unmarked) [Example 33, 6-Amino-N-(5-(trifluoromethyl)pyrazin-2-yl)-5,6,7,8-tetrahydronaphthalene-2-carboxamide]
0.0434	0.0247	CCOc1ccc(NC(=O)c2ccc3c(c2)CCC(N)C3)cn1 (centres unmarked) [Example 31, 6-Amino-N-(6-ethoxypyridin-3-yl)-5,6,7,8-tetrahydronaphthalene-2-carboxamide]
0.0003	0.0012	N[C@H]1CCc2cc(NC(=O)Nc3ccc(OC(F)(F)F)cc3)ccc2C1 [Example 65, (S)-1-(6-Amino-5,6,7,8-tetrahydronaphthalen-2-yl)-3-(4-(trifluoromethoxy)phenyl)urea]
0.0039	0.0054	NC1CCc2cc(C(=O)Nc3ccc(C(F)(F)F)cc3)ccc2C1 (centres unmarked) [Example 34, 6-Amino-N-(4-(trifluoromethyl)phenyl)-5,6,7,8-tetrahydronaphthalene-2-carboxamide]
0.0009	0.001	N[C@H]1CCc2cc(NC(=O)Nc3ccc(C4CC4)cc3)ccc2C1 [Example 72, (S)-1-(6-Amino-5,6,7,8-tetrahydronaphthalen-2-yl)-3-(4-cyclopropylphenyl)urea]
0.0009	0.0008	N[C@H]1CCc2cc(C(=O)Nc3cccc(OC(F)(F)F)c3)ccc2C1 [Example 79, (S)-6-Amino-N-(3-(trifluoromethoxy)phenyl)-5,6,7,8-tetrahydronaphthalene-2-carboxamide]
0.0023	0.0045	N[C@H]1CCc2cc(NC(=O)Nc3ccc(C(F)(F)F)nc3)ccc2C1 [Example 16, (S)-1-(6-Amino-5,6,7,8-tetrahydronaphthalen-2-yl)-3-(6-(trifluoromethyl)pyridin-3-yl)urea]
0.0237	0.0265	N[C@H]1CCc2cc(NC(=O)c3ccc(C(F)(F)F)nc3)ccc2C1 [Example 20, (S)—N-(6-Amino-5,6,7,8-tetrahydronaphthalen-2-yl)-6-(trifluoromethyl)nicotinamide]
